Measurements reported in ChEMBL document CHEMBL6083234, “Discovery of novel 1,4-dicarbonylthiosemicarbazides as DNA gyrase inhibitors for the treatment of MRSA infection” (Eur J Med Chem, 2024).
Values after ≈ are worked out from the molar mass of the structure shown.

Key:
[1] = test system: Staphylococcus aureus; assay: Antibacterial activity against Staphylococcus aureus ATCC 29213 assessed as inhibition of bacterial growth incubated for 18 to 24 hrs by broth microdilution method; assay type: functional; settings: time 18-24 hrs
[2] = molecular target: T1, Ribonuclease P protein component (Staphylococcus aureus, UniProt P0A0H5); assay: Inhibition of Staphylococcus aureus RnpA-mediated RNA degradation incubated for 20 mins by fluorescence-based high through-put assay
T1 sequence (P0A0H5 whole entry): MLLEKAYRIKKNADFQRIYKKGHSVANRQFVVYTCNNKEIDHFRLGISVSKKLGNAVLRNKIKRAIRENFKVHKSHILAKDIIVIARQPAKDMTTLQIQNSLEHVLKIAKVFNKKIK

[3] = test system: Staphylococcus aureus; assay: Antibacterial activity against methicillin-resistant Staphylococcus aureus incubated for 18 hrs by CLSI protocol based broth microdilution method; assay type: functional
[4] = Cytotoxicity against HUVEC cells assessed as reduction in cell viability incubated for 48 hrs by CCK8 assay; assay type: toxicity, cell-based; settings: human
[5] = Selectivity index, ratio of CC50 for cytotoxicity against human HepG2 cells to MIC for antibacterial activity against Staphylococcus aureus ATCC 29213; assay type: toxicity, cell-based; settings: read-out: Selectivity Index
[6] = molecular target: DNA gyrase (Staphylococcus aureus, UniProt P0A0K8+P20831); assay: Inhibition of Staphylococcus aureus DNA gyrase ATP hydrolysis activity using pBR322 DNA as substrate incubated for 30 mins in presence of ATP by ADP-Glo reagent based assay; assay type: protein-complex assay
[7] = Selectivity index, ratio of CC50 for cytotoxicity against HUVEC cells to MIC for antibacterial activity against Staphylococcus aureus ATCC 29213; assay type: toxicity, cell-based; settings: human, read-out: Selectivity Index
[8] = Cytotoxicity against human HepG2 cells assessed as reduction in cell viability incubated for 48 hrs by CCK8 assay; assay type: toxicity, cell-based

Row | MIC [1] | SMILES | also measured
1 | 3.12 mg/L | CC(=O)NC(=S)NNC(=O)c1cccc(-c2ccccc2)c1 | 
2 | 3.12 mg/L | CCCCCOc1ccc(C(=O)NNC(=S)NC(C)=O)c(C)c1 | 
3 | 25 mg/L | CCCCCOc1ccc(CC(=O)NNC(=S)NC(C)=O)cc1 | 
4 | 50 mg/L | CCC(=O)NC(=S)NNC(=O)c1ccccc1O | 
5 | > 100 mg/L | CCCCCOc1ccc(CCC(=O)NNC(=S)NC(C)=O)cc1 | 
6 | 3.12 mg/L | CC(=O)NC(=S)NNC(=O)c1ccc(C2CC2)cc1 | 
7 | 6.25 mg/L | CCCOc1ccc(C(=O)NNC(=S)NC(C)=O)cc1 | 
8 | > 100 mg/L | CCCCCCOc1ccc(C(=O)NNC(N)=S)cc1 | 
9 | 100 mg/L | CCCCCCOc1ccc(C(=O)NNC(=O)NC(C)=O)cc1 | 
10 | > 100 mg/L | CCCCCOc1ccc(C(=O)NNC(=S)NS(C)(=O)=O)cc1 | 
11 | 1.56 mg/L | CC(=O)NC(=S)NNC(=O)c1ccc(OC2CCCCC2)cc1 | 
12 | 12.5 mg/L | CCCCCOc1ccc(C(=O)NNC(=S)NC(=O)C(C)C)cc1 | 
13 | > 100 mg/L | COCCCOc1ccc(C(=O)NNC(=S)NC(C)=O)cc1 | 
14 |  | Cc1ccc(C(=O)NC(=S)NNC(=O)c2ccc(Cl)cc2)cc1C | IC50 [2]: > 50 µM; MIC [3]: 16 mg/L (≈ 44.2 µM)
15 | 12.5 mg/L | Cc1ccc(C(=O)NNC(=S)NC(=O)CC(C)C)cc1 | 
16 | > 100 mg/L | CCCCCOc1cccc(C(=O)NNC(=S)NC(C)=O)c1 | 
17 | 12.5 mg/L | CCCCCOc1ccc(C(=O)NNC(=S)NC(=O)CCC)cc1 | 
18 | > 100 mg/L | CC(=O)NC(=S)NNC(=O)c1ccc([N+](=O)[O-])cc1 | 
19 | 25 mg/L | CCCCCOc1ccc(C(=O)NNC(=S)NC(C)=O)nc1 | 
20 | 100 mg/L | CCCCCCCCCCCOc1ccc(C(=O)NNC(=S)NC(C)=O)cc1 | 
21 | > 100 mg/L | CCCCCCOc1ccc(C(=O)NN(C)C(=S)NC(C)=O)cc1 | 
22 | 25 mg/L | CCCCCOc1ccc(C(=O)NNC(=S)NC(C)=O)cc1O | 
23 | 1.22 µM | CC(=O)NC(=S)NNC(=O)c1ccc(C2CCCCC2)cc1 | CC50 at 48 h [4]: 0.79 µM; selectivity ratio [5]: 0.1; IC50 [6]: 1.89 µM; selectivity ratio [7]: 0.65; CC50 at 48 h [8]: 0.12 µM
24 | > 100 mg/L | CCCCCOc1ccc(C(=O)NNC(=S)NC(C)=O)c(OCCCCC)c1 | 
25 | 6.25 mg/L | CC(=O)NC(=S)NNC(=O)c1ccc2ccccc2c1 | 
26 | > 100 mg/L | CCCCCCOc1ccc(-c2nnc(NC(C)=O)o2)cc1 | 
27 | 1.56 mg/L | CC(=O)NC(=S)NNC(=O)c1ccc(-c2ccccc2)cc1 | 
28 | > 100 mg/L | CCCCCOc1ccc(C(=O)NNC(=S)NC(=O)c2ccc(C(=O)O)cc2)cc1 | 
